From patent US9884040B2, “Desethylamiodarone for use in cancer treatment” (PÉCSI TUDOMÁNYEGYETEM, priority 2015, dated 2018)

Tests used:
[1] = clinically relevant concentrations; cited from earlier work
[2] = system: A549 human lung adenocarcinoma epithelial cell line; assay: Radiotherapy plus DEA, colony formation, A549; assay type: cell-based; conditions: 1Gy or 2Gy single dose alone or with 500 nM-3 μM DEA
Description: (§1) Cells were trypsinized and plated in triplicate into 6-well plates at 500 cells/well. Cells were treated with different concentration of DEA and irradiated with a dose of 1.0 and 2.0 Grays. A telecobalt (Therathron 780 C) external irradiation equipment (average photon energy of 1.25 MeV) will be applied for irradiating cells. After 7 days of incubation, cells were washed and stained with Coomassie-blue, and the colonies containing more than 50 cells were counted. The number of colonies were determined and normalized to the number of colonies in controls.
To examine the effects of a DEA on the effectiveness of radiotherapy the cells were treated with 1Gy or 2Gy single dose irradiation alone or combined with 500 nM-3 μM DEA.
The cells were treated with 1Gy or 2Gy single dose irradiation alone or combined with 500 nM-3 μM DEA. Untreated cells served as controls. The results are mean±SEM of 3 independent experiments performed in at least quadruplicate. p<0.05 compared to the corresponding control group.

[3] = system: 4T1 (mouse mammary carcinoma) cells; assay: Colony formation assay, 4T1; assay type: cell-based; conditions: one week following treatment
Source text: Desethylamiodarone (DEA) is the main metabolite of the widely used anti-arrhythmic drug amiodarone. DEA also has antiarrhythmic activity in clinical relevant concentration. […] (27, 28, 29, 30) DEA accumulates rapidly in the lungs. […] Here, we checked whether Desethylamiodarone can affect invasion, migration of cancer cells. First of all, we initially checked whether desethylamiodarone has effect on the viability of T24 (human urinary bladder carcinoma), B16F10 (mice melanoma), 4T1 (mouse mammary carcinoma) cells using MTT assay. As shown in FIG. 1-3 Desethylamiodarone had significant cytotoxic activity in very low concentrations. To assess the recovery ability of cells that survived treatment, long-term (7 days) colony formation assay was performed.
as §1, with “Dea.” for “DEA and irradiated with a dose of 1.0 and 2.0 Grays. A telecobalt (Therathron 780 C) external irradiation equipment (average photon energy of 1.25 MeV) will be applied for irradiating cells.”

[4] = system: B16F10 mice melanoma cell line; assay: Colony formation assay, B16F10; assay type: cell-based; conditions: one week; 1, 1.5, 2, 2.5 or 3 μM
Description: (§2) Cells were trypsinized and plated in triplicate into 6-well plates at 500 cells/well. Cells were treated with different concentration of Dea. After 7 days of incubation, cells were washed and stained with Coomassie-blue, and the colonies containing more than 50 cells were counted. The number of colonies were determined and normalized to the number of colonies in controls. To assess the recovery ability of cells that survived treatment, long-term (7 days) colony formation assay was performed. […] B16F10 cells were incubated with the indicated concentrations of desethylamiodarone (1, 1.5, 2, 2.5 or 3 μM for one week and cell colonies were fixed, stained and counted. (A-B) Data are expressed as the mean±SD of ≧3 experiments; a p<0.01 is considered statistically significant. The data shown on FIG. 6 provide evidence that DEA can be useful to treat melanoma.

[5] = system: T24 (human urinary bladder carcinoma) cells; assay: MTT cell viability assay, T24; assay type: cell-based; conditions: 24 h and 48 h; 5, 10, 15 and 15 μM; vs untreated control
Description: (§3) The cells were seeded into 96-well plates at a starting density of 10^4 cells per well and cultured overnight before DEA was added to the medium for 24 h and 48 h. The medium was changed to a fresh one containing 0.5% of 3-[4,5-dimethylthiazol-2-yl]-2,5-diphenyl-tetrazolium bromide (MTT+) for an additional 3 hours, then the MTT+ reaction was terminated by adding HCl to 10 mM final concentration. The amount of blue formazan dye formed from MTT+ was proportional to the number of live cells, and was determined with an Anthos Labtech 2010 ELISA reader at 550 nm. All experiments were run in at least 4 replicates and repeated 3 times.
The effect of desethylamiodarone was measured in T24 (human urinary bladder carcinoma), A549 (human lung adenocarcinoma epithelial), B16F10 (mice melanoma), HeLa (human cervix adenocarcinoma), 4T1 (mouse mammary carcinoma) cell lines. Cells were treated with increasing concentrations of desethylamiodarone for 24 and 48 h. Cell growth was assessed by measuring metabolic activity, which reflects viability in the MTT-test in the course of 24 h, 48 h of continued exposure to desethylamiorarone. The untreated cells served as negative controls. […]
T24 cells were exposed for 24 h (A), 48 h (B) to […], 10 μM, 15 μM and 15 μM desethylamiodarone (filled bars). Viability of the cells was detected by the MTT+ method. […]

[6] = system: MCF 7 breast cancer cell line; assay: MTT cell viability assay, MCF 7; assay type: cell-based; conditions: increasing concentrations, 24, 48 and 72 hours
Description: as §3
MCF 7 cells were exposed to increasing concentrations of DEA for 24, 48 and 72 hours. Viability of the cells was detected by the MTT method. Untreated cells served as controls.

[7] = system: A549 human lung adenocarcinoma epithelial cell line; assay: Colony formation assay, A549; assay type: cell-based; conditions: one week; 1, 1.5, 2, 2.5 or 3 μM
Description: as §2, with “A549” for “B16F10”, “significant.” for “significant. The data shown on FIG. 6 provide evidence that DEA can be useful to treat melanoma.”

## CCCCc1oc2ccccc2c1C(=O)c1cc(I)c(OCCNCC)c(I)c1 [DEA, (2-butyl-3-benzofuranyl)[4-[2-(ethylamino)ethoxy]-3,5-diiodophenyl]-methanone]
[1]
  Action potential duration (class III antiarrhythmic effect): significantly increasing the action potential duration
  Maximum rate of depolarization (class I antiarrhythmic effect): decreasing the maximum rate of depolarization
[2]
  Radiosensitization, colony formation, A549: sensitize lung cancer to irradiation
[3]
  Colony formation, 4T1: significant decrease in the number and the size of colonies
[4]
  Colony formation, B16F10: significant decrease in the number and the size of colonies
[5]
  Viability of T24 cells (MTT): Significantly different from control group at p<0.01
[6]
  Viability of MCF 7 cells (MTT): induces cell death
[7]
  Colony formation, A549: significant decrease in the number and the size of colonies
